{"source": "ChEMBL document CHEMBL1201862", "about": "“PubChem BioAssay data set” (2004)", "key": {"[1]": {"system": "INS1", "assay": "suppression of cytokine-induced beta-cell apoptosis – INS-1E, caspase luminescence, dry powder, beta-cell apoptosis inhibitor project, dose response (AID 488848)", "format": "functional, cell-based", "conditions": "Rattus norvegicus"}, "[2]": {"assay": "THP-1 cell cytotoxicity, cytotoxicity control, set 6 (AID 602433)", "format": "functional", "conditions": "Mycobacterium tuberculosis"}, "[3]": {"molecular_target": "T1, Endoribonuclease toxin MazF (Escherichia coli K-12, UniProt P0AE70)", "T1 sequence (P0AE70 whole entry)": "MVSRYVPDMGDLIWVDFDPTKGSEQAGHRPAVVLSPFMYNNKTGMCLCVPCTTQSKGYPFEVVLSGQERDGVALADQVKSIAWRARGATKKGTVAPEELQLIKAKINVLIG", "assay": "MazEF toxin-antitoxin RNase activation – biochemical, fluorescence, single-stranded RNA substrate, SAR follow-up (AID 588603)", "format": "functional"}, "[4]": {"system": "MEF", "assay": "SAR analysis of small molecule cytotoxicity of MazEF TA System activators in embryonic fibroblast (MEF) cells. [Related pubchem assays (depositor defined):AID504720, AID504743]", "format": "functional", "conditions": "Mus musculus"}, "[5]": {"molecular_target": "T1, Endoribonuclease toxin MazF", "assay": "substrate-only fluorescence increase artefacts – biochemical, single-stranded RNase substrate, counter-screen for MazEF activator project, dose response (AID 588502)", "format": "functional"}, "[6]": {"molecular_target": "T1, Endoribonuclease toxin MazF", "assay": "activation of MazEF endoribonuclease cleavage – biochemical, fluorescence, single-stranded RNA substrate, uHTS hits, dose response (AID 588481)", "format": "functional"}, "[7]": {"molecular_target": "T1, Endoribonuclease toxin MazF", "assay": "SAR analysis of small molecule activators of the MazEF TA System via a fluorescence-based single-stranded RNase assay counterscreen. [Related pubchem assays (depositor defined):AID504720, AID504743]", "format": "functional"}, "[8]": {"molecular_target": "Benomyl/methotrexate resistance protein (Candida albicans, UniProt P28873)", "sequence (P28873 whole entry)": "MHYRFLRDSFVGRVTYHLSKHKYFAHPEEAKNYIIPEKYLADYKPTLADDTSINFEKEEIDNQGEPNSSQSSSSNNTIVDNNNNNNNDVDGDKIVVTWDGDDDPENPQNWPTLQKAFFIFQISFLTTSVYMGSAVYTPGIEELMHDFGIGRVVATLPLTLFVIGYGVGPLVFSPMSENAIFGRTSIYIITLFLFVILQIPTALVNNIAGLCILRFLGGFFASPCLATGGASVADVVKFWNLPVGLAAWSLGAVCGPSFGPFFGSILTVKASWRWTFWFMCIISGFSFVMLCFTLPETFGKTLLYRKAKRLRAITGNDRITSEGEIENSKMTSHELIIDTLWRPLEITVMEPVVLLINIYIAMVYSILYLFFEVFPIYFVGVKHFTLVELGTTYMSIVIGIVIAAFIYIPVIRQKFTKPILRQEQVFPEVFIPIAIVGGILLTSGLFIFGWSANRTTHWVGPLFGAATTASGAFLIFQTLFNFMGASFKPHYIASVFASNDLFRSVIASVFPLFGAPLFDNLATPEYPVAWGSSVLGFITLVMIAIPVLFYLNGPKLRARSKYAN", "assay": "Candida albicans Mdr1 pump blockade titration – singleplex, Cherry Pick2 set, dose response (AID 623992)", "format": "functional", "conditions": "read-out: EC50_MICROM"}, "[9]": {"system": "HEK293", "assay": "HEK293T cell viability loss, resazurin readout – resazurin fluorescence, cytotoxicity control for NF-kB activator project, SAR follow-up (AID 493251)", "format": "functional, cell-based", "conditions": "Homo sapiens"}, "[10]": {"system": "Jurkat", "assay": "SAR Analysis of small molecule inhibitors of T-cell specific antigen receptor-induced NF-kB activation in a Jurkat cell line using a luminescence assay - Set 2. [Related pubchem assays (depositor defined):AID435003, AID435012, AID465]", "format": "functional, cell-based", "conditions": "Homo sapiens"}, "[11]": {"system": "HEK293", "assay": "SAR Analysis of small molecule inhibitors of T-cell specific antigen receptor-induced NF-kB activation in a HEK-293T cell line using a luminescence assay - Set 2. [Related pubchem assays (depositor defined):AID435003, AID435012, AID489026]", "format": "functional, cell-based", "conditions": "Homo sapiens"}}, "note": "Activity calls are given as the source filed them."}
{"smiles": "COc1ccc(S(=O)(=O)N(C)C[C@@H]2Oc3c(NC(=O)Nc4cccc(-c5ncccn5)c4)cccc3C(=O)N([C@@H](C)CO)C[C@H]2C)cc1", "values": [{"measurement": "AC50", "setting": "[1]", "result": "98 µM (active)"}]}
{"smiles": "CC(C)CCNC(=O)CSc1nc2c(c(=O)[nH]1)CCCC2", "values": [{"measurement": "CC50", "setting": "[2]", "result": "> 100 µM (inconclusive)"}]}
{"smiles": "O=C1c2ccccc2C(Nc2ccc(S(=O)(=O)N3CCCCCC3)cc2)N1c1ccccn1", "note": "(stereo unspecified)", "values": [{"measurement": "EC50", "setting": "[3]", "result": "19.3 µM (active)"}, {"measurement": "CC50", "setting": "[4]", "result": "> 99 µM (inactive)"}, {"measurement": "EC50", "setting": "[5]", "result": "> 99 µM (inactive)"}, {"measurement": "EC50", "setting": "[6]", "result": "16.1 µM (active)"}, {"measurement": "EC50", "setting": "[7]", "result": "> 99 µM (inactive)"}]}
{"smiles": "O=C(/C=C/c1cccs1)N1CCC2(CC1)Oc1ccc(F)cc1C(=O)C21CC(c2ccccc2)=NO1", "note": "(stereo unspecified)", "values": [{"measurement": "EC50", "setting": "[8]", "result": "29.7 µM (active)"}]}
{"smiles": "N#Cc1cccc(NC(=O)c2ccc([N+](=O)[O-])o2)c1", "values": [{"measurement": "IC50", "setting": "[9]", "result": "57.4 µM (inactive)"}, {"measurement": "IC50", "setting": "[10]", "result": "18.1 µM (active)"}, {"measurement": "IC50", "setting": "[11]", "result": "32.9 µM (inactive)"}]}
